According to ChEMBL document CHEMBL1150109, “New cytotoxic coumarins and prenylated benzophenone derivatives from the bark of Ochrocarpos punctatus from the Madagascar rainforest” (J Nat Prod, 2002):
Values after ≈ are worked out from the molar mass of the structure shown.

Test system: A2780
Assay: Cytotoxicity against human A2780 cells
Type: functional, cell-based

Compound `CCC(C)C(=O)c1c2c(c3oc(=O)cc(-c4ccccc4)c3c1O)CC(C(C)(C)O)O2` (stereo unspecified) has an IC50 of 8.2 µg/mL (≈ 19.4 µM).

With `CC(C)CC(=O)c1c2c(c3oc(=O)cc(-c4ccccc4)c3c1O)CC(C(C)(C)O)O2` (stereo unspecified) the IC50 was 6.4 µg/mL (≈ 15.1 µM).

In the case of `CCC(C)C(=O)c1c2c(c3oc(=O)cc(-c4ccccc4)c3c1O)C=CC(C)(C)O2` (stereo unspecified), the IC50 is reported as 4.5 µg/mL (≈ 11.1 µM).

`CCCC(=O)c1c2c(c3oc(=O)cc(-c4ccccc4)c3c1O)CC(C(C)(C)O)O2` (stereo unspecified) was tested, and the IC50 was 4.4 µg/mL (≈ 10.8 µM).

`CC(C)=CCC1CC2(CC=C(C)C)C(=O)C3=C(OC(C)(C)C(OO)C3)C(C(=O)c3ccccc3)(C2=O)C1(C)C` (stereo unspecified) showed an IC50 of 8.4 µg/mL (≈ 15.7 µM).

`CCC(OC(C)=O)c1cc(=O)oc2c3c(c(C(=O)[C@@H](C)CC)c(O)c12)OC(C(C)(C)O)C3` (single isomer, unassigned) [OCHROCARPIN G] showed an IC50 of 8.6 µg/mL (≈ 19.3 µM).

`CC(C)C(=O)c1c2c(c3oc(=O)cc(-c4ccccc4)c3c1O)C=CC(C)(C)O2` [MESUAGIN] was tested, and the IC50 was 10.8 µg/mL (≈ 27.7 µM).

`CC[C@H](C)C(=O)c1c(O)c2c(-c3ccccc3)cc(=O)oc2c2cc(C(C)(C)O)oc12` [OCHROCARPIN A] showed an IC50 of 5.2 µg/mL (≈ 12.4 µM).

For `CC(C)CC(=O)c1c(O)c2c(-c3ccccc3)cc(=O)oc2c2cc(C(C)(C)O)oc12` [OCHROCARPIN B], the IC50 was 3.8 µg/mL (≈ 9.04 µM).

With `CC(C)C(=O)c1c(O)c2c(-c3ccccc3)cc(=O)oc2c2cc(C(C)(C)O)oc12` [OCHROCARPIN C] the IC50 was 3.7 µg/mL (≈ 9.1 µM).

Compound `CC[C@H](C)C(=O)c1c(O)c2c(-c3ccccc3)cc(=O)oc2c2cc(C(C)(C)OC)oc12` [OCHROCARPIN D] has an IC50 of 6.3 µg/mL (≈ 14.5 µM).

Work on `CC(C)C(=O)c1c(O)c2c(c3c(-c4ccccc4)cc(=O)oc13)OC(C(C)(C)O)C2` (stereo unspecified) [OCHROCARPIN E] yielded an IC50 of 4.9 µg/mL (≈ 12 µM).

`CC[C@H](C)C(=O)c1c2c(c3oc(=O)cc([C@@H](CC)OC(C)=O)c3c1O)CC(C(C)(C)O)O2` (stereo partly specified) [OCHROCARPIN F] was tested, and the IC50 was 8.9 µg/mL (≈ 19.9 µM).

With `CC(C)=CCC1CC2(CC=C(C)C)C(=O)C(C(=O)c3ccccc3)(C(=O)C3=C2OC(C)(C)C(OO)C3)C1(C)C` (stereo unspecified) [OCHROCARPINONE A] the IC50 was 6.9 µg/mL (≈ 12.9 µM).

`CC(C)=CCC1CC2(CC=C(C)C)C(=O)C3=C(OC(C(C)(C)O)C3)C(C(=O)c3ccccc3)(C2=O)C1(C)C` (stereo unspecified) [OCHROCARPINONE B] showed an IC50 of 7.4 µg/mL (≈ 14.3 µM).

For `CC(C)=CCC1CC2(CC=C(C)C)C(=O)C(C(=O)c3ccccc3)(C(=O)C3=C2OC(C(C)(C)O)C3)C1(C)C` (stereo unspecified) [OCHROCARPINONE C], the IC50 was 8.2 µg/mL (≈ 15.8 µM).
